One experiment concerns TNFα. In words: Cot Monocyte TNFα Cell Based Assay.
For another experiment, the target named is Human Cot (Homo sapiens (Human), UniProt P41279). In words: High Throughput Cot Biochemical Assay. As to conditions: Cot HTRF (TR-FRET) biochemical assay. Background: TR-FRET usually uses a lanthanide donor and a delayed reading to cut background.
The mark [1] stands for this setting: Homo sapiens, Monocyte, read-out: EC50 TNF, LPS-stimulated human monocytes, TNFα.
[2] abbreviates: read-out: EC50 TNF, LPS-stimulated human monocytes, TNFα.

Like-named read-outs stand apart in the source and are kept apart here.

Human Cot, sequence (P41279 30-397): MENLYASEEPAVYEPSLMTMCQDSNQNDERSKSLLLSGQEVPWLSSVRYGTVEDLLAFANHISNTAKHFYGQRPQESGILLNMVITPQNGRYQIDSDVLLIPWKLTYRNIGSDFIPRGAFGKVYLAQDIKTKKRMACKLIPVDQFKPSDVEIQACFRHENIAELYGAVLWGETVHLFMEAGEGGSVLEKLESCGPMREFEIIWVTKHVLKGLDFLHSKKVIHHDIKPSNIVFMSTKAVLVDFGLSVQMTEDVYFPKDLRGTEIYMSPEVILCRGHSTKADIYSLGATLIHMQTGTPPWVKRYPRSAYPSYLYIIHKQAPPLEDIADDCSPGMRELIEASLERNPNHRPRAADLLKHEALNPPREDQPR

With `Cc1nc(F)ccc1[C@H](Nc1cc(Cl)c2ncc(C#N)c(NCC(C)(C)CC#N)c2c1)c1cn(C2(C(F)F)CC2)nn1` [Example 512, (S)-8-chloro-4-((3-cyano-2,2-dimethyl-propyl)amino)-6-(((1-(1-(difluoromethyl)-cyclopropyl)-1H-1,2,3-triazol-4-yl)(6-fluoro-2-methylpyridin-3-yl)methyl)amino)quinoline-3-carbonitrile], in the experiment with TNFα (setting [1]), the EC50 was found to be 418 nM. In addition, on Human Cot (IC50 HTRF), 10 nM corresponded to half-maximal inhibition (IC50).
In the case of `Cc1nc(F)ccc1[C@H](Nc1cc(F)c2ncc(C#N)c(NCC(C)(C)C)c2c1)c1cn(C2(C(F)(F)F)CC2)nn1` [Example 513, (S)-8-fluoro-6-(((6-fluoro-2-methylpyridin-3-yl)(1-(1-(trifluoromethyl)cyclopropyl)-1H-1,2,3-triazol-4-yl)methyl)amino)-4-(neopentylamino)quinoline-3-carbonitrile], the half-maximal effective concentration (EC50) with TNFα (setting [1]) was determined as 154 nM. The molecule further registered a half-inhibitory concentration (IC50) against Human Cot (IC50 HTRF) of 9 nM.
For `Cc1nc(F)ccc1[C@H](Nc1cc(Cl)c2ncc(C#N)c(N[C@@H]3CCOC3(C)C)c2c1)c1cn(C2(C(F)F)CC2)nn1` [Example 515, 8-chloro-6-(((S)-(1-(1-(difluoromethyl)-cyclopropyl)-1H-1,2,3-triazol-4-yl)(6-fluoro-2-methylpyridin-3-yl)methyl)amino)-4-(((R)-2,2-dimethyltetrahydro-furan-3-yl)amino)quinoline-3-carbonitrile], the EC50 in the experiment on TNFα (setting [1]) is 1000 nM. The molecule also returned a concentration for half-maximal inhibition (IC50) against Human Cot (IC50 HTRF) of 199 nM.
The corresponding values for `Cc1nc(F)ccc1[C@H](Nc1cc(Cl)c2ncc(C#N)c(N[C@H]3CCOC3(C)C)c2c1)c1cn(C2(C(F)F)CC2)nn1` [Example 516, 8-chloro-6-(((S)-(1-(1-(difluoromethyl)-cyclopropyl)-1H-1,2,3-triazol-4-yl)(6-fluoro-2-methylpyridin-3-yl)methyl)amino)-4-(((S)-2,2-dimethyltetrahydrofuran-3-yl)amino)quinoline-3-carbonitrile] are 34 nM and 2 nM.
Consider `Cc1nc(F)ccc1[C@H](Nc1cc(Cl)c2ncc(C#N)c(NCC(C)(C)C)c2c1)c1cn(C2(C(=O)O)CC2)nn1` [Example 517, (S)-1-(4-(((8-chloro-3-cyano-4-(neopentylamino)quinolin-6-yl)amino)(6-fluoro-2-methylpyridin-3-yl)methyl)-1H-1,2,3-triazol-1-yl)cyclopropane-1-carboxylic acid], for which, in the experiment on TNFα (setting [1]), the EC50 was determined as 1000 nM. The molecule further yielded a 50% inhibitory concentration (IC50) at Human Cot (IC50 HTRF) of 3 nM.
As to `[2H][C@](Nc1cc(Cl)c2ncc(C#N)c(NCC(C)(C)C)c2c1)(c1ccc(F)nc1)c1cn(C2(C(F)F)CC2)nn1` [Example 518, (S)-8-chloro-6-(((1-(1-(difluoromethyl)-cyclopropyl)-1H-1,2,3-triazol-4-yl)(6-fluoropyridin-3-yl)methyl-d)amino)-4-(neopentylamino)quinoline-3-carbonitrile], in the experiment on TNFα (setting [1]), the EC50 stood at 207 nM. Further, on Human Cot (IC50 HTRF), the IC50 came out at 7 nM.
As for `Cn1cnc2c([C@H](Nc3cc(Cl)c4ncc(C#N)c(NCC(C)(C)C)c4c3)c3cn(C4(C(F)(F)F)CC4)nn3)cccc21` [Example 520, (S)-8-chloro-6-(((1-methyl-1H-benzo[d]imidazol-4-yl)(1-(1-(trifluoromethyl)cyclopropyl)-1H-1,2,3-triazol-4-yl)methyl)amino)-4-(neopentylamino)quinoline-3-carbonitrile], the EC50 in the experiment with TNFα (setting [1]) is 926 nM. For the same molecule, the IC50 at Human Cot (IC50 HTRF) was 123 nM.
The corresponding values for `Cn1ncc2cccc([C@H](Nc3cc(Cl)c4ncc(C#N)c(NCC(C)(C)C)c4c3)c3cn(C4(C(F)(F)F)CC4)nn3)c21` [Example 521, (S)-8-chloro-6-(((1-methyl-1H-indazol-7-yl)(1-(1-(trifluoromethyl)-cyclopropyl)-1H-1,2,3-triazol-4-yl)methyl)amino)-4-(neopentylamino)-quinoline-3-carbonitrile] are 256 nM and 27 nM.
For the molecule `Cn1nnc2cccc([C@H](Nc3cc(Cl)c4ncc(C#N)c(NCC(C)(C)C)c4c3)c3cn(C4(C(F)(F)F)CC4)nn3)c21` [Example 522, (S)-8-chloro-6-(((1-methyl-1H-benzo[d] [1,2,3]triazol-7-yl)(1-(1-(trifluoromethyl)-cyclopropyl)-1H-1,2,3-triazol-4-yl)methyl)amino)-4-(neopentylamino)-quinoline-3-carbonitrile], the 50% effective concentration (EC50) in the experiment on TNFα (setting [1]) worked out at 52 nM. Further, half-maximal inhibition against Human Cot (IC50 HTRF) (IC50) required 5 nM.
Turning to `Cn1cnc2cccc([C@H](Nc3cc(C#N)c4ncc(C#N)c(NCC(C)(C)C)c4c3)c3cn(C4(C(F)F)CC4)nn3)c21` [Example 523], in the experiment on TNFα (setting [2]), the EC50 was determined as 63 nM. Also, the half-inhibitory concentration (IC50) at Human Cot (read-out: IC50 HTRF) was determined as 2 nM.
`Cn1ncc2c([C@H](Nc3cc(Cl)c4ncc(C#N)c(NCC(C)(C)C)c4c3)c3cn(C4(C)CC4)nn3)cccc21` [Example 525, (S)-8-chloro-6-(((1-methyl-1H-indazol-4-yl)(1-(1-methylcyclopropyl)-1H-1,2,3-triazol-4-yl)methyl)amino)-4-(neopentylamino)quinoline-3-carbonitrile]: the concentration giving a half-maximal response (EC50) in the experiment with TNFα (setting [1]) worked out at 164 nM. Besides, the midpoint of inhibition against Human Cot (IC50 HTRF), the IC50, lay at 4 nM.
For the molecule `Cn1nnc2cccc([C@H](Nc3cc(C#N)c4ncc(C#N)c(NCC(C)(C)C)c4c3)c3cn(C4(C(F)(F)F)CC4)nn3)c21` [Example 527, (S)-6-(((1-methyl-1H-benzo[d][1,2,3]triazol-7-yl)(1-(1-(trifluoromethyl)cyclopropyl)-1H-1,2,3-triazol-4-yl)methyl)amino)-4-(neopentylamino)quinoline-3,8-dicarbonitrile], the concentration giving a half-maximal response (EC50) in the experiment with TNFα (setting [1]) turned out to be 78 nM. Moreover, half-maximal inhibition at Human Cot (IC50 HTRF) (IC50) required 3 nM.
For `Cc1n[nH]c2cccc([C@H](Nc3cc(C#N)c4ncc(C#N)c(NCC(C)(C)C)c4c3)c3cn(C4(C(F)(F)F)CC4)nn3)c12` [Example 528, (S)-6-(((3-methyl-1H-indazol-4-yl)(1-(1-(trifluoro-methyl)cyclopropyl)-1H-1,2,3-triazol-4-yl)methyl)amino)-4-(neopentylamino)quinoline-3,8-dicarbonitrile], the EC50 in the experiment on TNFα (setting [1]) worked out at 60 nM. In addition, the concentration for half-maximal inhibition (IC50) against Human Cot (IC50 HTRF) was 3 nM.
Take `Cn1ncc2c([C@H](Nc3cc(C#N)c4ncc(C#N)c(NCC(C)(C)C)c4c3)c3cn(C4(C)CC4)nn3)cccc21` [Example 529, (S)-6-(((1-methyl-1H-indazol-4-yl)(1-(1-methylcyclopropyl)-1H-1,2,3-triazol-4-yl)methyl)amino)-4-(neopentylamino)-quinoline-3,8-dicarbonitrile]: in the experiment on TNFα (setting [1]), the concentration giving a half-maximal response (EC50) is 50 nM. On Human Cot (IC50 HTRF), this molecule yielded an IC50 of 2 nM.
For the molecule `Cc1nc(F)ccc1[C@H](Nc1cc(Cl)c2ncc(C#N)c(NCC(C)(C)C)c2c1)c1cn(C(C)(C)C)nn1` [Example 530, (S)-6-(((1-(tert-butyl)-1H-1,2,3-triazol-4-yl)(6-fluoro-2-methylpyridin-3-yl)methyl- )amino)-8-chloro-4-(neopentylamino)-quinoline-3-carbonitrile], in the experiment on TNFα (setting [2]), the EC50 is 70 nM. Further, the IC50 at Human Cot (read-out: IC50 HTRF) is 3 nM.
For `Cc1nc(F)ccc1[C@H](Nc1cc(Cl)c2ncc(C#N)c(NCC(C)(C)C)c2c1)c1cn(C(C)(C)CF)nn1` [Example 531, (S)-8-chloro-6-(((1-(1-fluoro-2-methyl-propan-2-yl)-1H-1,2,3-triazol-4-yl)(6-fluoro-2-methylpyridin-3-yl)methyl)amino)-4-(neopentylamino)quinoline-3-carbonitrile], the EC50 in the experiment on TNFα (setting [1]) is 70 nM. Moreover, on Human Cot (IC50 HTRF), the IC50 turned out to be 3 nM.
Consider `Cc1nc(F)ccc1[C@H](Nc1cc(Cl)c2ncc(C#N)c(NCC(C)(C)C)c2c1)c1cn(CC(F)F)nn1` [Example 532, (S)-8-chloro-6-(((1-(2,2-difluoroethyl)-1H-1,2,3-triazol-4-yl)(6-fluoro-2-methyl-pyridin-3-yl)methyl)amino)-4-(neopentyl-amino)quinoline-3-carbonitrile], for which, in the experiment with TNFα (setting [1]), the half-maximal effective concentration (EC50) worked out at 78 nM. Further, at Human Cot (IC50 HTRF), the IC50 came out at 3 nM.
For `CC(C)(C)CNc1c(C#N)cnc2c(Cl)cc(N[C@H](c3cn(C4(C(F)(F)F)CC4)nn3)c3cccc4ccncc34)cc12` [Example 533, (S)-8-chloro-6-((isoquinolin-8-yl(1-(1-(trifluoromethyl)cyclopropyl)-1H-1,2,3-triazol-4-yl)methyl)amino)-4-(neopentyl-amino)quinoline-3-carbonitrile], in the experiment with TNFα (setting [1]), the EC50 is 96 nM. This molecule gave an IC50 against Human Cot (IC50 HTRF) of 3 nM.
Turning to `Cc1nc(F)ccc1[C@H](Nc1cc(Cl)c2ncc(C#N)c(NCC(C)(C)CO)c2c1)c1cn(C2(C(F)(F)F)CC2)nn1` [Example 534, (S)-8-chloro-6-(((6-fluoro-2-methylpyridin-3-yl)(1-(1-(trifluoromethyl)cyclopropyl)-1H-1,2,3-triazol-4-yl)methyl)amino)-4-((3-hydroxy-2,2-dimethylpropyl)amino)-quinoline-3-carbonitrile], in the experiment with TNFα (setting [1]), the 50% effective concentration (EC50) turned out to be 394 nM. This molecule displayed a half-inhibitory concentration (IC50) on Human Cot (IC50 HTRF) of 20 nM.
On the same counts, the results for `CC(C)(C)CNc1c(C#N)cnc2c(Cl)cc(N[C@H](c3cn(C4(C(F)F)CC4)nn3)c3cccc4cnccc34)cc12` [Example 536, (S)-8-chloro-6-(((1-(1-(difluoromethyl)-cyclopropyl)-1H-1,2,3-triazol-4-yl)(isoquinolin-5-yl)methyl)amino)-4-(neopentylamino)quinoline-3-carbonitrile] are 51 nM and 3 nM.
For the molecule `CC(C)(C)CNc1c(C#N)cnc2c(Cl)cc(N[C@H](c3cn(C4(C(F)F)CC4)nn3)c3cccc4ccncc34)cc12` [Example 537, (S)-8-chloro-6-(((1-(1-(difluoromethyl)-cyclopropyl)-1H-1,2,3-triazol-4-yl)(isoquinolin-8-yl)methyl)amino)-4-(neopentylamino)quinoline-3-carbonitrile], in the experiment on TNFα (setting [1]), the EC50 worked out at 75 nM. The molecule further yielded an IC50 on Human Cot (IC50 HTRF) of 2 nM.
`CC(C)(C)CNc1c(C#N)cnc2c(Cl)cc(N[C@H](c3cn(C4(C(F)F)CC4)nn3)c3cccn4nccc34)cc12` [Example 538, (S)-8-chloro-6-(((1-(1-(difluoromethyl)-cyclopropyl)-1H-1,2,3-triazol-4-yl)(pyrazolo[1,5-a]pyridin-4-yl)methyl)amino)-4-(neopentylamino)-quinoline-3-carbonitrile]: in the experiment with TNFα (setting [1]), the half-maximal effective concentration (EC50) worked out at 109 nM. Further, the IC50 at Human Cot (IC50 HTRF) was 5 nM.

What is called EC50 is the concentration giving half of the maximal effect. The term IC50 denotes the concentration at which inhibition is half-maximal.

Source of the values: patent US11066414B2, “Cot modulators and methods of use thereof” (Gilead Sciences, Inc., priority 2015, dated 2021).
